{"source": "patent US9989533B2", "about": "“Anti-TNF induced apoptosis (ATIA) diagnostic markers and therapies” (The United States of America, as represented by the …, priority 2009, dated 2018)", "molecules": {"B1": {"name": "TRAIL: tumour necrosis factor-related apoptosis-inducing ligand (protein, UniProt P50591 1-281, looked up)", "Tumor necrosis factor ligand …": "MAMMEVQGGPSLGQTCVLIVIFTVLLQSLCVAVTYVYFTNELKQMQDKYSKSGIACFLKEDDSYWDPNDEESMNSPCWQVKWQLRQLVRKMILRTSEETISTVQEKQQNISPLVRERGPQRVAAHITGTRGRSNTLSSPNSKNEKALGRKINSWESSRSGHSFLSNLHLRNGELVIHEKGFYYIYSQTYFRFQEEIKENTKNDKQMVQYIYKYTSYPDPILLMKSARNSCWSKDAEYGLYSIYQGGIFELKENDRIFVSVTNEHLIDMDHEASFFGAFLVG"}}, "key": {"ATIA+/+ and ATIA−/− mice": {"test_system": "ATIA+/+ and ATIA−/− mice", "assay_type": "in vivo", "conditions": "GalN pretreatment, TNFα 2 μg/Kg intravenous, by 8 hr post-treatment", "description": "(A) is a schematic diagram of ATIA knockout strategy. (B) and (C) show the generation of ATIA+/− ES cells (B) and ATIA+/− and ATIA−/− mice (C) was confirmed by PCR. […] Survival curves of wild-type (n=5) and ATIA KO (n=8) after TNF treatment. […] Tissue sections were analyzed by H&E (left panels) and TUNNEL (right panels) staining.\nTo determine whether ATIA is able to protect from TNF-induced apoptosis in vivo, a model of TNF-induced hepatitis (26, 27) was used. […] By 8 hr post-treatment, 20% of ATIA+/+ mice as compared to more than 85% of ATIA—mice were moribund (FIG. 5D). […] No other histological differences were noted. […] To further confirm this observation, we also examined TNF-induced apoptosis in ATIA−/− MEFs. Wild-type and ATIA−/− mouse embryonic fibroblast cell lines were established from 10.5-12.5 day old wild-type and ATIA knockout embryos. The cell lines were verified for the loss of ATIA by genomic PCR analysis and western blotting with the anti-ATIA antibody (data not shown). Cells were treated with TNF and varied doses of cyclohexamide (CHX) (FIG. 6A). […] Cell death induced by UV radiation or staurosporine is however, only moderately affected by the loss of ATIA (FIG. 6B)."}, "ATIA [1]": {"test_system": "ATIA", "experiment": "effect of cyclohexamide on ATIA stability, blot (FIG. 28 bottom)", "assay_type": "cell-based, human", "description": "(§1) FIG. 28 is two panels that show the effect of cyclohexamide on ATIA stability and cell apoptosis.\n(§2) Experiments were performed with small chemical molecules to reduce ATIA levels in cancer cells. Examples of small molecules that can be used include, but are not limited to, cyclohexamide. […] Preferably, […] is administered locally to the tumor."}, "A172 cells": {"test_system": "A172 cells", "experiment": "apoptosis (annexin positive cells) after cyclohexamide treatment under hypoxia (FIG. 28 top)", "assay_type": "cell-based, human", "conditions": "in the presence of CHX", "description": "as §1, §2"}, "ATIA [2]": {"test_system": "ATIA", "assay_type": "cell-based"}, "[3]": {"test_system": "A172, U87MG and 251 glioblastoma cells", "experiment": "TRAIL-induced cell death in glioblastoma cells (FIG. 19)", "assay_type": "cell-based", "conditions": "ATIA-expressing human glioblastoma cells (A172) versus cells which do not express ATIA (U87MG); TRAIL 20 ng/ml, 24 h", "excerpt": "Next, the sensitivity of ATIA expressing cells to TRAIL-induced cell death was examined. FIG. 19, left panel, is a western blot showing the expression of ATIA in various glioblastoma cell types."}}, "note": "Like-named read-outs stand apart in the source and are kept apart here."}
{"molecule": "TNFα", "values": [{"measurement": "moribund mice", "setting": "ATIA+/+ and ATIA−/− mice; ATIA+/+ mice", "result": 20, "unit": "%"}, {"measurement": "moribund mice", "setting": "ATIA+/+ and ATIA−/− mice; ATIA−/− mice", "result": "more than 85%"}]}
{"molecule": "C[C@@H]1C[C@@H]([C@H](O)CC2CC(=O)NC(=O)C2)C(=O)[C@@H](C)C1", "note": "[cycloheximide]", "values": [{"measurement": "effect on ATIA level", "setting": "ATIA [1]; 0.5 ug, A172 Cells", "result": "causes the decrease of ATIA"}, {"measurement": "effect on ATIA levels", "setting": "ATIA [1]; low levels (e.g. 0.1 μg-1.0 μg), tumor cells", "result": "reduces ATIA levels"}, {"measurement": "apoptosis under hypoxia", "setting": "A172 cells", "result": "undergo apoptosis"}]}
{"molecule": "[Cl-].[Cl-].[Co+2]", "note": "[CoCl2]", "values": [{"measurement": "ATIA protein expression", "setting": "ATIA [2]", "result": "considerably increased"}]}
{"molecule": "B1", "values": [{"measurement": "sensitivity to TRAIL-induced cell death", "setting": "[3]", "result": "much more sensitive to TRAIL-induced cell death"}]}
